Data published in patent publication US20140275094A1, “METHOD FOR TREATING PULMONARY ARTERIAL HYPERTENSION IN A PATIENT NOT HAVING IDIOPATHIC PULMONARY FIBROSIS” (GILEAD SCIENCES, INC., priority 2012, published 2014).

Assays:
human hepatocytes = details: cited from earlier work
[1] = target: T1, human bile salt export pump (BSEP) (Homo sapiens, UniProt O95342); experiment: Inhibition of hepatic transporter BSEP, Sf9 cell membrane vesicles; type: biochemical
T1 construct: expressed in transfected cells; host or cells: Sf9 cell membrane vesicles
T1 sequence (O95342 whole entry): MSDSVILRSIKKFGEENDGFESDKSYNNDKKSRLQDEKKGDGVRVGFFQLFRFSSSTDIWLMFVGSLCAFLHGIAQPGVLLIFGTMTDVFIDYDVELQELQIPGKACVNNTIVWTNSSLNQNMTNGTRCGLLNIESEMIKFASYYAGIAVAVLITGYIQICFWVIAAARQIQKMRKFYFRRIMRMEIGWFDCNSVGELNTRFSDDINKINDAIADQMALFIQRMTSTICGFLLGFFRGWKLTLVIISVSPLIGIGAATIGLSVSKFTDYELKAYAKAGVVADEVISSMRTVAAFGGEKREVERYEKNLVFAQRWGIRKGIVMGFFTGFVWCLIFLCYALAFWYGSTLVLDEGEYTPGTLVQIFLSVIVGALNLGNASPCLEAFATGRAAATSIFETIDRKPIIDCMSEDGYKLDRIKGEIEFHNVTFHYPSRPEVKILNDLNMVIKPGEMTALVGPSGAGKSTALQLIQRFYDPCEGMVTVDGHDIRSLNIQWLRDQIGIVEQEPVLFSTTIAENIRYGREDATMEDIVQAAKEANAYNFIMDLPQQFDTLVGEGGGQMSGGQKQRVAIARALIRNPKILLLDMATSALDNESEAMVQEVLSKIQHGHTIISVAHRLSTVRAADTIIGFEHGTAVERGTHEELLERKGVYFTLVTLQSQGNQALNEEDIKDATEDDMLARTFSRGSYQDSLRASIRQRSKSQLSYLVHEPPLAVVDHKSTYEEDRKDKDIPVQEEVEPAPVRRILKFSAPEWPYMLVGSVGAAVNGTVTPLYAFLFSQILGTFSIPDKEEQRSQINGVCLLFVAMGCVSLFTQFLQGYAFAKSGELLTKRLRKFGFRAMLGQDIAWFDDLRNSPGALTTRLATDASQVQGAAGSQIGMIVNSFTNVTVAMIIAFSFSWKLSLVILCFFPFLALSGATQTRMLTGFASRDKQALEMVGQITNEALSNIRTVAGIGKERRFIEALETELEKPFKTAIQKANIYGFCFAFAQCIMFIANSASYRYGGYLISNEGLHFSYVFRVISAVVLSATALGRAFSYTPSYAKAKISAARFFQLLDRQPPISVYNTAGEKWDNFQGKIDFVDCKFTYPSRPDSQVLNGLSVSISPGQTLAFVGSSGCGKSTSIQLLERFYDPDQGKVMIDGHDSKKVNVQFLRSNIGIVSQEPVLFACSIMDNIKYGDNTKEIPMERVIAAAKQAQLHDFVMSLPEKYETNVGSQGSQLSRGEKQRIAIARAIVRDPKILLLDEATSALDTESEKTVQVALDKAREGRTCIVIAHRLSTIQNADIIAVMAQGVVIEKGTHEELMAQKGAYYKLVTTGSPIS
Protocol: (§1) Inhibition constants (IC50) were measured for human bile salt export pump (BSEP), sodium taurocholate cotransporting polypeptide (NTCP), multidrug resistance protein 2 (MRP2), P-glycoprotein (Pgp), breast cancer resistance protein (BCRP), organic anion-transporting polypeptide 1B1 (OATP1B1), and OATP1B3 in transfected cell-lines. Known inhibitors were used as positive controls.

[2] = target: T2, sodium taurocholate cotransporting polypeptide (NTCP) (Homo sapiens, UniProt Q14973); experiment: Inhibition of hepatic transporter NTCP, transfected CHO cells; type: cell-based
T2 construct: expressed in transfected cells; host or cells: Chinese Hamster Ovary (CHO)
T2 sequence (Q14973 1-349): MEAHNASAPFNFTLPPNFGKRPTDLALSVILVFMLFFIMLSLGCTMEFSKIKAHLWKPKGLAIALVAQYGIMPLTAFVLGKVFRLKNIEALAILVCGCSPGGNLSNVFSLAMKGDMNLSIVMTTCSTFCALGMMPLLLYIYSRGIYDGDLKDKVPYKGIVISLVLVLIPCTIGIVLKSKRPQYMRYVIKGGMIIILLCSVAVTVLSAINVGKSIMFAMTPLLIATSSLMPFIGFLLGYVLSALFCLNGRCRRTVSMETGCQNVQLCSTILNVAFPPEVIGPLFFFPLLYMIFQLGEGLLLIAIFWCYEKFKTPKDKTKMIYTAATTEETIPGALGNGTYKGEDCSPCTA
Protocol: as §1

P-glycoprotein (Pgp) = target: T3, P-glycoprotein (Pgp) (Homo sapiens, UniProt P08183); experiment: Inhibition of Pgp, transfected MDCKII cells; type: cell-based
T3 construct: expressed in transfected cells; host or cells: Madin-Darby canine kidney strain II (MDCKII)
T3 sequence (P08183 whole entry): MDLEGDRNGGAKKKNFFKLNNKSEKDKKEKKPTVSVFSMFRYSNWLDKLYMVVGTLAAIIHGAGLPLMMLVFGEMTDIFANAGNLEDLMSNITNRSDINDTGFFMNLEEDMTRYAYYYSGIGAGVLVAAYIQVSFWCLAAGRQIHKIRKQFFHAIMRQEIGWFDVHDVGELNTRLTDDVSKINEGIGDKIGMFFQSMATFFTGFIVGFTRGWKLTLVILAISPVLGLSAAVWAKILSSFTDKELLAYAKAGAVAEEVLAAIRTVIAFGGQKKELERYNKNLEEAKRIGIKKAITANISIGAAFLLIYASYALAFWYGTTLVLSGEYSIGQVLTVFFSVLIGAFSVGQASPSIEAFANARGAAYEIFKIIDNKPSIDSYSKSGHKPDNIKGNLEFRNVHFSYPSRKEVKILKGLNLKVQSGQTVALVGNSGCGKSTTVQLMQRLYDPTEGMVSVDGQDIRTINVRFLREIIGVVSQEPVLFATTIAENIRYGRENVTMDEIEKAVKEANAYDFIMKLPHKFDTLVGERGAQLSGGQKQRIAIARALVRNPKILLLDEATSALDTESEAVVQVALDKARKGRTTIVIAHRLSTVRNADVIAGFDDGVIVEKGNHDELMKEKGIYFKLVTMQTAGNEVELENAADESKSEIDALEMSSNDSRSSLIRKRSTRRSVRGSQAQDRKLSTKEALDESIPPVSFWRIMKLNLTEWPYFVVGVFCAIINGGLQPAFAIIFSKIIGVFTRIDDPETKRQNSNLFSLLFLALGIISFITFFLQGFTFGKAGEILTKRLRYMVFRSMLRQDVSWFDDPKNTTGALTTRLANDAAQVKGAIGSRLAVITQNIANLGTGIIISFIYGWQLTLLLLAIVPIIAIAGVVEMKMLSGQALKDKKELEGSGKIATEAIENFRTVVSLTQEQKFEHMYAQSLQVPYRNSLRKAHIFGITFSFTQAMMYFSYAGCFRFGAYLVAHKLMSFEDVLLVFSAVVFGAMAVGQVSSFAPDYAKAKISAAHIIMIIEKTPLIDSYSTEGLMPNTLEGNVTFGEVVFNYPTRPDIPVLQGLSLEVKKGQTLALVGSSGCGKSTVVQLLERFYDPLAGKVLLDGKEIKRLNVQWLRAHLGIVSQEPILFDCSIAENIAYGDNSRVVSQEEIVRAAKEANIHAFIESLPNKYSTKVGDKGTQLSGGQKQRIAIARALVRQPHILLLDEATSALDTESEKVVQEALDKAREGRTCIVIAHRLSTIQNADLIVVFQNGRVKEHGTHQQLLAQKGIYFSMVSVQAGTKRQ
Protocol: as §1

[3] = target: T4, breast cancer resistance protein (BCRP) (Homo sapiens, UniProt Q9UNQ0); experiment: Inhibition of BCRP, transfected MDCKII cells; type: cell-based
T4 construct: expressed in transfected cells; host or cells: MDCKII
T4 sequence (Q9UNQ0 1-655): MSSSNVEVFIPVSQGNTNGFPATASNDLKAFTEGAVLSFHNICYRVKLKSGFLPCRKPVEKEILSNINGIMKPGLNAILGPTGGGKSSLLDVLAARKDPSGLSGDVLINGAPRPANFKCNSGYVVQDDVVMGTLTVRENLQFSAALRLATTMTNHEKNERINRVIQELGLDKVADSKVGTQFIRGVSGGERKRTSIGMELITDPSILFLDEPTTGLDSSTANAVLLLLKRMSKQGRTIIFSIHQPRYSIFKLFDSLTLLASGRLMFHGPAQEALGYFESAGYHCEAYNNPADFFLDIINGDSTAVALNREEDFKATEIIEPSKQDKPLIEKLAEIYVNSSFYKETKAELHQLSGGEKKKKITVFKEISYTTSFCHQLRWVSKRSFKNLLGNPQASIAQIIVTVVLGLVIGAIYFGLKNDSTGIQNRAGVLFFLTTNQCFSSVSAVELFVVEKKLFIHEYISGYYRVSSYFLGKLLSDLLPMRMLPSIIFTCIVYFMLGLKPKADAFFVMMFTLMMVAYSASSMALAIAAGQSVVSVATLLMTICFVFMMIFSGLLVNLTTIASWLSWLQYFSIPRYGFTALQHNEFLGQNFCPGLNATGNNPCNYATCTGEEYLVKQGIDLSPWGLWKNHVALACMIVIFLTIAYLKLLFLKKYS
Protocol: as §1

[4] = target: T5, organic anion-transporting polypeptide 1B1 (OATP1B1) (Homo sapiens, UniProt Q9Y6L6); experiment: Inhibition of OATP1B1, transfected CHO cells; type: cell-based
T5 construct: expressed in transfected cells; host or cells: CHO
T5 sequence (Q9Y6L6 1-691): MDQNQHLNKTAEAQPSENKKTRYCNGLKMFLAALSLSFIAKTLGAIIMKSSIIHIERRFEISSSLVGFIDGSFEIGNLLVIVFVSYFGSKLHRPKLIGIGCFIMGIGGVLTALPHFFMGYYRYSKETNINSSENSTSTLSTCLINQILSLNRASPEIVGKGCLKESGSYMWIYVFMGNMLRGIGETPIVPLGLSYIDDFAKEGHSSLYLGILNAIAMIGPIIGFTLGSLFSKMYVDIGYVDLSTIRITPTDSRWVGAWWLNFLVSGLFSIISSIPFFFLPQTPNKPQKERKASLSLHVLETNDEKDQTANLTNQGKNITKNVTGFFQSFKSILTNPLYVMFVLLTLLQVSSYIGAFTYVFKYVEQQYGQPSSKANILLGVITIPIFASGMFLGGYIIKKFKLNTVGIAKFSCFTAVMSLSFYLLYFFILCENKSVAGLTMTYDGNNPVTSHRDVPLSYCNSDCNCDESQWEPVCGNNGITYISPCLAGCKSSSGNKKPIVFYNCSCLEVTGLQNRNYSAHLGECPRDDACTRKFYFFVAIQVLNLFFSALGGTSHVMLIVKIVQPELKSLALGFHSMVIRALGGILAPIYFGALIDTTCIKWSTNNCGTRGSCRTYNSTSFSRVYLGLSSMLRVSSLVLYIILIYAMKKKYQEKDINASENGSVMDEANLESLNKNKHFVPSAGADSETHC
Protocol: as §1

OATP1B3 = target: T6, OATP1B3 (Homo sapiens, UniProt Q9NPD5); experiment: Inhibition of OATP1B3, transfected CHO cells; type: cell-based; details: OAT1B3
T6 construct: expressed in transfected cells; host or cells: CHO
T6 sequence (Q9NPD5 1-702): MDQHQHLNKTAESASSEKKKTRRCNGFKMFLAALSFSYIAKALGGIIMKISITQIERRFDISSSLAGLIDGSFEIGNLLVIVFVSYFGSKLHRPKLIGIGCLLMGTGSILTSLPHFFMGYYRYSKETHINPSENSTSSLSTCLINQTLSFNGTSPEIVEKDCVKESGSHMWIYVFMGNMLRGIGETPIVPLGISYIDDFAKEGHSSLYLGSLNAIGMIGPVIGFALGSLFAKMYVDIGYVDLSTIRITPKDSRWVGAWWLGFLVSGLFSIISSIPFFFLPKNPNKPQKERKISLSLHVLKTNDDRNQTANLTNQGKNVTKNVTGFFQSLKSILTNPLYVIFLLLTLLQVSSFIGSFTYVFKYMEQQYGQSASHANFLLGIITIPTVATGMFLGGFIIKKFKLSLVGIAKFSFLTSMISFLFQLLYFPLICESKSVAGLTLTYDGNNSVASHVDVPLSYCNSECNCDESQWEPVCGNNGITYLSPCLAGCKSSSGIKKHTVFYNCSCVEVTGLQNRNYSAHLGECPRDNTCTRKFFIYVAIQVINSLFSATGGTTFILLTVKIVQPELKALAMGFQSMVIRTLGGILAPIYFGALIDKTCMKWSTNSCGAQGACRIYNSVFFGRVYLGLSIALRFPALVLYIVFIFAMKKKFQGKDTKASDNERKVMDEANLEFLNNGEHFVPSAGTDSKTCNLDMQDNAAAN
Protocol: as §1

| SMILES | effect on hepatobiliary transporter activity (human hepatocytes) | effect on BSEP [1] | IC50 ([1]; BSEP) | effect on NTCP [2] | IC50 ([2]; NTCP) | IC50 (P-glycoprotein (Pgp)) | IC50 [3] | IC50 [4] | IC50 (OATP1B3) |
| --- | --- | --- | --- | --- | --- | --- | --- | --- | --- |
| Cc1cc2c(cc1CC(=O)c1sccc1S(=O)(=O)Nc1onc(C)c1Cl)OCO2 [sitaxsentan] | decreased transporter activity to the greatest extent |  |  |  |  |  |  |  |  |
| COc1cc(OC)nc(O[C@H](C(=O)O)C(OC)(c2ccccc2)c2ccccc2)n1 [darusentan] | less potent |  |  |  |  |  |  |  |  |
| CCCNS(=O)(=O)Nc1ncnc(OCCOc2ncc(Br)cn2)c1-c1ccc(Br)cc1 [Macitentan, N-[5-(4-bromophenyl)-6-(2-(5-bromopyrimidin-2-yloxy)ethoxy)-pyrimidin-4-yl]-N′-propylaminosulfonamide] |  | inhibition was observed | 12 µM | inhibition was observed | 8 µM | 64 ± 15 µM | 75 ± 37 µM | 2 ± 0.3 µM | 2.1 ± 0.3 µM |
